Measured values taken from patent publication US20160022751A1, “NOVEL COMPOSITION FOR TREATING ALZHEIMER'S DISEASE AND IMPROVING COGNITIVE FUNCTION OF ALZHEIMER'S PATIENTS” (GANGNEUNG-WONJU NATIONAL UNIVERSITY INDUSTRY ACADEMY …, priority 2014, published 2016).

Legend:
Assay type in all cases: cell-based, mouse
TrkA = TrkA gene expression in N2a cells (quantitative RT-PCR); settings: 24 h, Rd 5 μg/ml, Re 5 μg/ml or Rd/Re each 2.5 μg/ml (FIG. 11)
Procedure: On the other hand, the present inventor investigates the expression level of TrkA gene after treating ginsenoside Rd (5 μg/ml), Re (5 μg/ml) or mixture of Rd/Re (each 2.5 μg/ml) to N2a cells for 24 h, using quantitative RT-PCR method, similar to the method described in the Example 4 (FIG. 11).

MAP-2 = MAP-2 mRNA expression in N2a cells (real-time RT-PCR); settings: 5 μg/ml (FIG. 8)
Procedure: (§1) Specifically, total RNA extracts from N2a cells were prepared using the Trizol method (Invitrogen, USA) and cDNA was synthesized from RNA by reverse transcription of 1 μg of total RNA using a reverse transcription system (Improm-II, Promega, USA) and oligo dT primers in a total volume of 20 μL. PCR amplification was performed using the primers described in Table 2 (Bioneer, Korea). Quantitative real-time PCR reactions were run on a Rotor-Gene 6000 (Corbett Research, Australia) using SensiMix™ SYBR Hi-ROX Kit (Bioline, U.K.) in 20 μL reaction mixtures. Each real-time-PCR master mix contained 10 μL 2× enzyme master mix, 7.0 μL RNase free water, 1 μL of each primer (10 pM each), and 1 μL diluted template. The PCR was performed with an initial pre-incubation step for 15 min at 95° C., followed by 45 cycles of 95° C. for 15 s, annealing at 52° C. for 15 s, and extension at 72° C. for 10 s. Melting curve analysis was used to confirm formation of the expected PCR product, and products from all assays were additionally tested with 1.2% agarose gel electrophoresis to confirm the correct lengths. […] Relative sample expression levels were calculated using Rotor-Gene 6000 Series Software 1.7, and were expressed relative to β-actin and corrected for between-run variability. Data for the experimental samples were expressed as a fold unit the internal control gene. […]

NGF = NGF mRNA expression in N2a cells (quantitative RT-PCR); settings: N2a cells (FIG. 13)
Text: Since NGF-Trk signal pathway upregulates ChAT and VAChT, it is important to know whether ginsenosides Rd and Re regulate Trk activity directly or at least indirectly. Therefore, the inventor investigated whether the expression of ChAT and VAChT was blocked by treating K252a, an inhibitor against protein kinase C (PKC) and Trk together with ginsenoside Rd or Re, in order to determine more closely whether the expression of cholinergic surface markers and the differentiation of neurons by the treatment of ginsenosides Rd and Re are caused whereby they act NGF-TrkA pathway directly. Particularly, N2a cells were treated with or without K252a (50 nM) in the presence of NGF (100 ng/mL), Re (5 μg/mL) or Rd (5 μg/mL) for 48 h. Total RNA and protein lysates were isolated as described in the Example 4-1 (FIG. 12). […] In addition, the present inventor performed quantitative RT-PCR in order to verify whether the treatment of ginsenosides Rd and Re affect the expression of NGF and NGFR in N2a cells.

CHT1 = CHT1 expression in N2a cells; settings: N2a cells (FIG. 7E)
Procedure: as §1

Compound | expression of TrkA (TrkA) | expression of MAP-2 mRNA (MAP-2) | NGF mRNA level (NGF) | expression of CHT1 (CHT1)
CC(C)=CCC[C@](C)(O[C@@H]1O[C@H](CO)[C@@H](O)[C@H](O)[C@H]1O)[C@H]1CC[C@]2(C)[C@@H]1[C@H](O)C[C@@H]1[C@@]3(C)CC[C@H](O[C@@H]4O[C@H](CO)[C@@H](O)[C@H](O)[C@H]4O[C@@H]4O[C@H](CO)[C@@H](O)[C@H](O)[C@H]4O)C(C)(C)[C@@H]3CC[C@]12C [ginsenoside Rd] | increased the expression of TrkA in a dose-dependent manner | significantly increased | significantly increased | increased
CC(C)=CCC[C@](C)(O[C@@H]1O[C@H](CO)[C@@H](O)[C@H](O)[C@H]1O)[C@H]1CC[C@]2(C)[C@@H]1[C@H](O)C[C@@H]1[C@@]3(C)CC[C@H](O)C(C)(C)[C@@H]3[C@@H](O[C@@H]3O[C@H](CO)[C@@H](O)[C@H](O)[C@H]3O[C@@H]3O[C@@H](C)[C@H](O)[C@@H](O)[C@H]3O)C[C@]12C [ginsenoside Re] | increased the expression of TrkA in a dose-dependent manner | significantly increased | significantly increased | increased
